# Assay results as given in patent publication US20240300968A1, “6-SUBSTITUTED NAPHTHALENE-1,3-DISULFONIC ACID DERIVATIVES AS MODULATORS OF THE EXTRACELLULAR NICOTINAMIDE PHOSPHORIBOSYL TRANSFERASE (ENAMPT) FOR THE TREATMENT OF E.G. DIABETES” (The University of Manchester, priority 2021, published 2024).
# Read-outs that look alike come from different tables or passages of the source.
# Experiments:
# NAMPT [1] = target: T1, NAMPT (Homo sapiens (Human), UniProt P43490); assay: Native mass spectrometry of NAMPT incubated with compound; assay type: binding; settings: NAMPT 5 μmol/l with compound 5 μmol/l, 12 hours; m/z 6125-6500 region
# THP-1 cells = assay: THP-1 WST-1 assay; assay type: cell-based; settings: Homo sapiens, 1 μM test compound, 48 hrs, average of three replicates
# Description: THP-1 cells were plated at […] (400,000 cells per mL) in a final volume of 150 μL media (RPMI-1640 containing 10% v/v FBS) containing 1 μM test compound. Samples were incubated for 48 hrs at which point 15 μL WST-1 solution (Sigma-Aldrich) was added. Light was excluded and the samples incubated for a further 2 hrs. Absorbance of wells were read at 450 nm and 630 nm using a Hidex Sense plate reader. Metabolic inhibition was determined by the absorbance at 450 nm and transformed to % control using Excel. Data reported is an average of three replicates.
# NAMPT [2] = target: T1, NAMPT; assay: Tm shift assay (thermal melting, SYPRO Orange); assay type: binding; settings: read-out: NAMPT Tm shift
# [3] = compound 100 μM, shift vs protein without ligand, mean of 3 independent repeats
# T1 sequence (P43490 whole entry, species assumed): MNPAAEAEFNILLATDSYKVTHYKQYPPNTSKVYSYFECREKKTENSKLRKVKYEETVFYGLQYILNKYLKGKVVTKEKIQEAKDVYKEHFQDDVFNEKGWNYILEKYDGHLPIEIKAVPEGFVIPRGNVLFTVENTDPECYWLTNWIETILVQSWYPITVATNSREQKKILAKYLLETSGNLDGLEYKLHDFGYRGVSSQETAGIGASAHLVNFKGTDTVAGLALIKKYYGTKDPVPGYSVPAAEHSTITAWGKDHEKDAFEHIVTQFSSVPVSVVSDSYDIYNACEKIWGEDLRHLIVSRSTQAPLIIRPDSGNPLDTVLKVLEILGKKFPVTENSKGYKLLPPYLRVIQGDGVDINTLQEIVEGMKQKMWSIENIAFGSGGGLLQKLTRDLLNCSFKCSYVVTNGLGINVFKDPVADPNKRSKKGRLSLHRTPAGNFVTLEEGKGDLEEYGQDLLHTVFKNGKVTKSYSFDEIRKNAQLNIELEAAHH
complex between NAMPT and compound in native mass spectrum (NAMPT [1]),ΔTm at 100 µM (NAMPT [2]) [°C],ΔTm at 100 µM (NAMPT [2]; [3]) [°C],Compound,inhibition at 1 µM (THP-1 cells) [%]
complex dissociates,2.6,–,"O=C(/C=C/c1cccnc1)NCCCCC1CCN(C(=O)c2ccccc2)CC1 [FK866, (E)-N-[4-(1-benzoylpiperidin-4-yl)butyl]-3-pyridin-3-ylprop-2-enamide, reference compound]",79.6
–,–,4.2,O=C(NCc1ccc(S(=O)(=O)N2CCCCC2)cc1)c1cc2cc(-c3ccc4cc(S(=O)(=O)O)cc(S(=O)(=O)O)c4c3)ccc2[nH]1 [Example 9],< 0
–,–,20.5,"O=C(NC[C@@H]1CCOC1)c1ccc(NC(=O)N2Cc3ccc(-c4ccc5cc(S(=O)(=O)O)cc(SOOO)c5c4)cc3C2)cc1 [Example 10, (S)-6-(2-((4-(((Tetrahydrofuran-3-yl)methyl)carbamoyl)phenyl)carbamoyl)isoindolin-5-yl)-4-(trioxidaneylthio)naphthalene-2-sulfonic acid]",–
–,–,9.7,"O=C(NCc1ccc(F)c(-c2ccc3cc(S(=O)(=O)O)cc(S(=O)(=O)O)c3c2)c1)Nc1ccc(S(=O)(=O)N2CC3CCC(C2)O3)cc1 [Example 8, 6-(5-((3-(4-((8-oxa-3-azabicyclo[3.2.1]octan-3-yl)sulfonyl)phenyl)ureido)methyl)-2-fluorophenyl)-4-(trioxidaneylthio)naphthalene-2-sulfonic acid]",< 0

# Second part, the compound before the results:
Compound,complex between NAMPT and compound in native mass spectrum (NAMPT [1]),ΔTm at 100 µM (NAMPT [2]) [°C],ΔTm at 100 µM (NAMPT [2]; [3]) [°C],inhibition at 1 µM (THP-1 cells) [%]
"O=C(NCc1cc(-c2ccc3cc(S(=O)(=O)O)cc(S(=O)(=O)O)c3c2)ccc1F)Nc1ccc(S(=O)(=O)N2CCCCC2)cc1 [Example 6, 6-(4-fluoro-3-((3-(4-(piperidin-1-ylsulfonyl)phenyl)ureido)methyl)phenyl)-4-(trioxidaneylthio) naphthalene-2-sulfonic acid]",–,–,9.6,1
O=S(=O)(O)c1cc(S(=O)(=O)O)c2cc(-c3cccc(-c4cn(CCCCCCOc5ccccc5-c5ccccc5)nn4)c3)ccc2c1 [Example 4],–,–,–,< 0
COc1ccc(CNC(=O)Nc2ccc(S(=O)(=O)N3CCCCC3)cc2)cc1-c1ccc2cc(S(=O)(=O)O)cc(S(=O)(=O)O)c2c1 [Example 7],–,–,7.5,< 0
"O=C(/C=C/c1ccc(F)c(-c2ccc3cc(S(=O)(=O)O)cc(S(=O)(=O)O)c3c2)c1)NCCCCC1CCN(C(=O)c2ccccc2)CC1 [Example 2, (E)-6-(5-(3-((4-(1-benzoylpiperidin-4-yl)butyl)amino)-3-oxoprop-1-en-1-yl)-2-fluorophenyl)-4-(trioxidaneylthio)naphthalene-2-sulfonic acid]",–,–,9.1,70.4
"O=C(NCc1ccc(F)c(-c2ccc3cc(S(=O)(=O)O)cc(S(=O)(=O)O)c3c2)c1)Nc1ccc(S(=O)(=O)N2CCCCC2)cc1 [Example 1, 6-(2-fluoro-5-((3-(4-(piperidin-1-ylsulfonyl)phenyl)ureido)methyl)phenyl)-4-(trioxidaneylthio)naphthalene-2-sulfonic acid]",–,–,10.3,< 0
O=C(NCc1cccc(-c2ccc3cc(S(=O)(=O)O)cc(S(=O)(=O)O)c3c2)c1)Nc1ccc(S(=O)(=O)N2CCCCC2)cc1 [Example 5],–,–,10.8,< 0
"O=C(NCc1ccc(F)c(-c2ccc3cc(S(=O)(=O)O)cc(S(=O)(=O)O)c3c2)c1)Nc1ccc(S(=O)(=O)c2ccccc2)cc1 [Example 3, 6-(2-fluoro-5-((3-(4-(phenylsulfonyl)phenyl)ureido)methyl)phenyl)-4-(trioxidaneylthio) naphthalene-2-sulfonic acid]",–,–,12.2,< 0
